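Results reflect a 48-hour exposure of cells in 96-well plates to compound at five concentrations. Definition used: TGI = concentration required for complete inhibition of growth.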

Among the test systems are A549 NSCLC; COLO 205 colon; EKVX NSCLC; HCC-2998 colon; HCT-116 colon; HCT-15 colon; HOP-62 NSCLC; HOP-92 NSCLC; LOX IMVI melanoma; MCF7 breast; MDA-MB-231 breast; NCI-H226 lung; NCI-H23 lung; OVCAR-5 ovarian; OVCAR-8 ovarian; RXF 393 renal; SF-295 CNS; SF-539 CNS; U251 CNS.
Common to all, as to experiment: NCI anticancer screen, dose series, 48 h

Turning to `O=C1CCC2c3ccccc3NCN12` (configuration not stated), the TGI in the experiment on A549 NSCLC, in the experiment on COLO 205 colon, in the experiment on EKVX NSCLC, in the experiment on HCC-2998 colon, with HCT-116 colon and in the experiment with HCT-15 colon was > 100 µM each time. Moreover, the TGI in the experiment with HOP-62 NSCLC, with HOP-92 NSCLC, with LOX IMVI melanoma, in the experiment with MCF7 breast, in the experiment on MDA-MB-231 breast and with NCI-H226 lung was > 100 µM throughout. Moreover, the TGI in the experiment on NCI-H23 lung, in the experiment with OVCAR-5 ovarian, with OVCAR-8 ovarian, in the experiment on RXF 393 renal, with SF-295 CNS and in the experiment with SF-539 CNS was > 100 µM each time. Further, in the experiment with U251 CNS, the TGI was > 100 µM.
Take `CCS(=O)c1c2cc(OC)ccc2nc2ccc(OC)cc12` (configuration not stated): the TGI in the experiment with A549 NSCLC was 51.1 µM; in the experiment with COLO 205 colon, 15.4 µM; with EKVX NSCLC, 32.3 µM; with HCC-2998 colon, 41.8 µM; in the experiment with HCT-116 colon, 7.52 µM; in the experiment with HCT-15 colon, > 52.5 µM. Further, the TGI with HOP-62 NSCLC is 51.1 µM; in the experiment on HOP-92 NSCLC it was > 53.1 µM; in the experiment with LOX IMVI melanoma, > 100 µM; in the experiment on MCF7 breast, > 100 µM; in the experiment with MDA-MB-231 breast it was 11.2 µM; in the experiment with NCI-H226 lung, 47.8 µM. Further, the TGI was 19.9 µM with NCI-H23 lung; 41.7 µM in the experiment with OVCAR-5 ovarian; 15.5 µM with OVCAR-8 ovarian; 17.2 µM with RXF 393 renal; 63.4 µM in the experiment with SF-295 CNS; > 59 µM with SF-539 CNS. Besides, the TGI with U251 CNS was > 55.3 µM.
Consider `COC(=O)c1cc(O)c(O)c(O)c1-c1c(O)c(O)c(O)c(SC[C@H](NC(=O)OCc2ccccc2)C(=O)OCc2ccccc2)c1C(=O)OC`, for which the TGI was 36.3 µM with A549 NSCLC; 48.4 µM in the experiment on COLO 205 colon; 50.8 µM with EKVX NSCLC; > 100 µM in the experiment on HCC-2998 colon; 35.7 µM in the experiment with HCT-116 colon; > 100 µM in the experiment with HCT-15 colon. Besides, the TGI in the experiment on HOP-62 NSCLC is > 100 µM; with HOP-92 NSCLC it was > 100 µM; in the experiment with LOX IMVI melanoma, 49.4 µM; in the experiment on MCF7 breast, 43.1 µM; in the experiment with MDA-MB-231 breast, 39 µM; in the experiment with NCI-H226 lung, 48.2 µM. Further, the TGI is 50.3 µM with NCI-H23 lung; > 100 µM in the experiment on OVCAR-5 ovarian; 52.7 µM with OVCAR-8 ovarian; > 100 µM in the experiment with RXF 393 renal; > 100 µM with SF-295 CNS; 73 µM in the experiment with SF-539 CNS. The same molecule displayed a TGI in the experiment with U251 CNS of 33.5 µM.
On to `COC(=O)Cc1c([C@H]2[C@H](CC(=O)OC)c3ccccc3N2S(=O)(=O)c2ccc(C)cc2)[nH]c2ccccc12`, for which the TGI with A549 NSCLC, in the experiment with COLO 205 colon, in the experiment with EKVX NSCLC, in the experiment with HCC-2998 colon, in the experiment on HCT-116 colon and in the experiment on HCT-15 colon was > 100 µM in each case. The TGI with HOP-62 NSCLC, in the experiment with HOP-92 NSCLC, in the experiment with LOX IMVI melanoma, with MCF7 breast, in the experiment on MDA-MB-231 breast and in the experiment on NCI-H226 lung was > 100 µM throughout. In addition, the TGI in the experiment with NCI-H23 lung, in the experiment with OVCAR-5 ovarian, with OVCAR-8 ovarian, with RXF 393 renal, in the experiment on SF-295 CNS and in the experiment on SF-539 CNS was > 100 µM throughout. Moreover, the TGI in the experiment with U251 CNS is > 100 µM.
Take `CCOC(=O)OC1C(Br)C2CCC1(C)C2(C)C` (configuration not stated): the TGI turned out to be 30.1 µM with A549 NSCLC; 26.2 µM in the experiment on COLO 205 colon; 29.4 µM in the experiment on EKVX NSCLC; 25.1 µM in the experiment with HCC-2998 colon; 20.9 µM in the experiment on HCT-116 colon; 27.5 µM in the experiment on HCT-15 colon. Further, the TGI is 31.2 µM with HOP-62 NSCLC; 27.6 µM in the experiment with HOP-92 NSCLC; 18.9 µM in the experiment on LOX IMVI melanoma; 31.3 µM with MCF7 breast; 24.9 µM in the experiment with MDA-MB-231 breast; 28.1 µM in the experiment on NCI-H226 lung. The TGI is 31.9 µM in the experiment on NCI-H23 lung; 31.7 µM in the experiment on OVCAR-5 ovarian; 31.7 µM in the experiment on OVCAR-8 ovarian; 25.1 µM in the experiment with RXF 393 renal; 29.5 µM with SF-295 CNS; 28 µM in the experiment on SF-539 CNS. In the experiment on U251 CNS, the TGI came out at 26.6 µM.
Turning to `O=[N+]([O-])c1cc(-[n+]2cc([O-])on2)ccc1Cl`, the TGI is > 100 µM with A549 NSCLC; > 100 µM with COLO 205 colon; 37.8 µM in the experiment with EKVX NSCLC; 34.9 µM in the experiment with HCC-2998 colon; 39.8 µM in the experiment on HCT-116 colon; 73.7 µM in the experiment with HCT-15 colon. Besides, the TGI in the experiment with HOP-62 NSCLC was 30.1 µM; in the experiment with HOP-92 NSCLC, 42.1 µM; in the experiment on LOX IMVI melanoma it was 33.7 µM; with MCF7 breast it was 43.3 µM; in the experiment with MDA-MB-231 breast, 37.7 µM; with NCI-H226 lung, > 100 µM. Also, the TGI stood at 26.6 µM in the experiment on NCI-H23 lung; 32.4 µM with OVCAR-5 ovarian; 49.7 µM with OVCAR-8 ovarian; 27.9 µM in the experiment on RXF 393 renal; 51.5 µM in the experiment with SF-295 CNS; 30.7 µM in the experiment with U251 CNS.
As to `CC/C(Cl)=N\OC(=O)Nc1ccc(OC)c(C)c1`, the TGI is > 71.4 µM with A549 NSCLC; 31.4 µM in the experiment with COLO 205 colon; 10.1 µM in the experiment on EKVX NSCLC; 43.2 µM in the experiment with HCC-2998 colon; 29.6 µM in the experiment with HCT-116 colon; 34.5 µM with HCT-15 colon. Further, the TGI in the experiment with HOP-62 NSCLC was > 82.5 µM; in the experiment with HOP-92 NSCLC it was 5.69 µM; with LOX IMVI melanoma, 31.1 µM; in the experiment on MCF7 breast, > 64.3 µM; in the experiment on MDA-MB-231 breast it was > 88.6 µM; in the experiment on NCI-H226 lung, 70.4 µM. Further, the TGI in the experiment with NCI-H23 lung was 36.5 µM; with OVCAR-5 ovarian, 71.6 µM; with OVCAR-8 ovarian it was 39.2 µM; in the experiment on RXF 393 renal, 31 µM; in the experiment with SF-295 CNS, > 100 µM; in the experiment with SF-539 CNS, 42 µM. Also, the TGI with U251 CNS was > 100 µM.

Values taken from PubChem BioAssay (NCI).
